Data: patent US20200079773A1, “CARBOXYLIC ACID DERIVATIVES OF PYRIDOQUINAZOLINES USEFUL AS PROTEIN KINASE INHIBITORS” (ONCOSTELLAE, S.L., priority 2017, published 2020)

What was measured:
Assay type in all cases: biochemical
JAK2 = biological target: T1, JAK2 (Homo sapiens, UniProt O60674); test: Functional assay of protein kinases (Caliper mobility shift), JAK2; settings: ATP 300 μM, 30 min incubation
T1 construct: purchased Carna Biosciences 08-045
Protocol: (§1) Functional Assays of Protein Kinases
(§2) The functional assays of protein kinases were carried out in 384-well plates using a final volume of 30 μl. […] The reaction was reads in a “Caliper EzReader LabChip 3000” (Caliper, Hopkinton, Mass.) reader, based on electrophoretic mobility of the fluorescent substrate and the phosphorylated product.
(§3) The inhibition percentages were calculated by comparison between control reactions, for 100% of inhibition and reactions with only DMSO for 0% of inhibition.

JAK1 = biological target: T2, JAK1 (Homo sapiens, UniProt P23458); test: Functional assay of protein kinases (Caliper mobility shift), JAK1; settings: ATP 100 μM, 150 min incubation
T2 construct: purchased Carna Biosciences 08-144
T2 sequence (P23458 850-1154 limits assumed): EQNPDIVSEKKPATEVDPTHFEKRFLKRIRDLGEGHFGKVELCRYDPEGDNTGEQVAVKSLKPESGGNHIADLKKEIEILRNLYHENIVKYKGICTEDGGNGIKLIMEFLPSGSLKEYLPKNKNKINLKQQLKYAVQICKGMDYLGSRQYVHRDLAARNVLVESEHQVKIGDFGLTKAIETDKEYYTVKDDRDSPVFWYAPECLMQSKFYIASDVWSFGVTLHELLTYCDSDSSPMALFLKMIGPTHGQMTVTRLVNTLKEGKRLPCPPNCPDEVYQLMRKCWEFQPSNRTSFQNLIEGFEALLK
Protocol: as §1, §2, §3

JAK3 = biological target: T3, JAK3 (Homo sapiens, UniProt P52333); test: Functional assay of protein kinases (Caliper mobility shift), JAK3; settings: ATP 8 μM, 30 min incubation
T3 construct: purchased Carna Biosciences 08-046
T3 sequence (P52333 795-1124 limits assumed): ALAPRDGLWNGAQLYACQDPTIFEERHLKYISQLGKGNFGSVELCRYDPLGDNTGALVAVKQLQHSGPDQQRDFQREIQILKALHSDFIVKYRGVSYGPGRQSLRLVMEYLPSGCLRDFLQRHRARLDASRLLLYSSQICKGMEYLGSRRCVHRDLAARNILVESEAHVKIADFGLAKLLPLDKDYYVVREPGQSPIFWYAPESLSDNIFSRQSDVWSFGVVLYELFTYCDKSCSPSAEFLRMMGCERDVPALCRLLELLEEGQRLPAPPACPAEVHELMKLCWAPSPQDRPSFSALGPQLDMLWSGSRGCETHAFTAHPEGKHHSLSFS
Protocol: as §1, §2, §3

TYK2 = biological target: T4, TYK2 (Homo sapiens, UniProt P29597); test: Functional assay of protein kinases (Caliper mobility shift), TYK2; settings: ATP 20 μM, 45 min incubation
T4 construct: purchased Carna Biosciences 08-147
T4 sequence (P29597 871-1187 limits assumed): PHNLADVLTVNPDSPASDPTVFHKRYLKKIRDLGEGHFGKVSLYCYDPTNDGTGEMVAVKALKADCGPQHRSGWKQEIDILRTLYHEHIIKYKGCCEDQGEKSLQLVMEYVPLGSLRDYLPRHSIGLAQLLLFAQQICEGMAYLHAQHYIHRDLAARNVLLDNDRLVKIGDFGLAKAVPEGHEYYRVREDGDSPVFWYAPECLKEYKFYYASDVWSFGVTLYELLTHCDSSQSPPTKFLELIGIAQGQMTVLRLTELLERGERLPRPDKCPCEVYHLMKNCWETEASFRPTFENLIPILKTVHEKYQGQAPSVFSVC
Protocol: as §1, §2, §3

Human MLK3 = biological target: T5, Human MLK3 (Homo sapiens, UniProt Q16584); test: MLK3 activity inhibition test (Reaction Biology kit, 33P ATP filter assay); settings: MBP 10 μM, ATP 10 μM
T5 construct: purchased Reaction Biology MLK3
T5 sequence (Q16584 whole entry): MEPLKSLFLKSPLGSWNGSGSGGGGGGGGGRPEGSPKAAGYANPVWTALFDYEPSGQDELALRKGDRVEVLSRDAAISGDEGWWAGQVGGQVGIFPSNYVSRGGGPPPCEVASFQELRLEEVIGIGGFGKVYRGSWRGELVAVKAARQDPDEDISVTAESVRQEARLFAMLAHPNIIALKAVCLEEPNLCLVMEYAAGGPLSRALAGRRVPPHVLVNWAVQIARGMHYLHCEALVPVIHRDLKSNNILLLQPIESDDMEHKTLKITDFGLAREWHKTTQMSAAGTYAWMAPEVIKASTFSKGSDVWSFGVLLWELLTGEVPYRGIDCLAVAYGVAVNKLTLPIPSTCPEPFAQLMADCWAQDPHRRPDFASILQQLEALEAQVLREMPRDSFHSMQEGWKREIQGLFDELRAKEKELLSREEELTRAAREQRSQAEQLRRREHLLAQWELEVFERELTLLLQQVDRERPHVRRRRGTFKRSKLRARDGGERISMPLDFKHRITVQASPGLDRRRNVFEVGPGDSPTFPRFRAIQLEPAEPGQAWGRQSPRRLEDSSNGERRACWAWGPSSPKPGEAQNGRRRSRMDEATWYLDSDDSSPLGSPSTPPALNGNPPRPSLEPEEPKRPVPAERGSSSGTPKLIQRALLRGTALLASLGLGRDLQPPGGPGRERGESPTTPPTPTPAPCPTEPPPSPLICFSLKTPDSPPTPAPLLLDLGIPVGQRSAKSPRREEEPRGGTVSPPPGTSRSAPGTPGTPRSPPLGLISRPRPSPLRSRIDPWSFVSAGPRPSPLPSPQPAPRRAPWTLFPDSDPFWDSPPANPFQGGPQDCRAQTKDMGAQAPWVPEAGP
Protocol: MLK3 Activity Inhibition Test
Activity test was carried out using the kit from Reaction Biology (CAT #: MLK3). The test uses enzyme Human MLK3 and substrates are MBP (Myelin Basic Protein, HGNC ID:6925) 10 μM and ATP 10 μM. Other reagents are the following: Base Reaction buffer; 20 mM Hepes (pH 7.5), 10 mM MgCl2, 1 mM EGTA, 0.02% Brij35, 0.02 mg/ml BSA, 0.1 mM Na3VO4, 2 mM DTT, 1% DMSO.
The reaction was carried out following the instructions of manufacturer. Briefly, kinase/substrate pairs were prepared in reaction buffer. Compounds were delivered into the reaction, followed 20 minutes later by addition of a mixture of ATP (Sigma, St. Louis Mo.) and ^33P ATP (Perkin Elmer, Waltham Mass.) to a final concentration of 10 μM. Reactions were carried out at room temperature for 120 min, followed by spotting of the reactions onto P81 ion exchange filter paper (Whatman Inc., Piscataway, N.J.). Unbound phosphate was removed by extensive washing of filters in 0.75% phosphoric acid. […] IC50 values and curve fits were obtained using Prism (GraphPad Software).

T1 sequence (O60674 826-1132 limits assumed): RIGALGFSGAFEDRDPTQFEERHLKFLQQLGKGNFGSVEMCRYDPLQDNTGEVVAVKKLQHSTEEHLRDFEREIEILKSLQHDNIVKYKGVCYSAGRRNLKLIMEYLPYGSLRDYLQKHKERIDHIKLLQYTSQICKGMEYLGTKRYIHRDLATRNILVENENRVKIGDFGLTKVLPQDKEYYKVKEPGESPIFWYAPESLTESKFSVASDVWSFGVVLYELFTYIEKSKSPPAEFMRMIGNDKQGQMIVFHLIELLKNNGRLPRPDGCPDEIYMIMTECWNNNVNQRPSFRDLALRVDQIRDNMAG

Compound	IC50 (JAK2)	IC50 (JAK1)	IC50 (JAK3)	IC50 (TYK2)	IC50 (Human MLK3)
O=C(NC1CCC(C(=O)O)CC1)c1cccn2c(=O)c3cc(C4CC4)ccc3nc12 (centres unmarked) [Example 1, 4-(2-cyclpropyl-11-oxo-11H-pyrido[2,1-b]quinazoline-6-carboxamido)cyclohexane-1-carboxylic acid]	≥ 1000 nM	≥ 1000 nM	< 100 nM	–	–
O=C(N[C@H]1CC[C@@H](C(=O)O)CC1)c1cccn2c(=O)c3cc(C4CC4)ccc3nc12 [Example 3, (1S,4S)-4-(2-cyclopropyl-11-oxo-11H-pyrido[2,1-b]quinazoline-6-carboxamido)cyclohexane-1-carboxylic acid]	≥ 1000 nM	≥ 1000 nM	< 100 nM	< 100 nM	< 100 nM
O=C(NC1CCC(C(=O)O)CC1)c1cccn2c(=O)c3cc(C4CC4)ccc3nc12 [Example 4, (1R,4R)-4-(2-cyclopropyl-11-oxo-11H-pyrido[2,1-b]quinazoline-6-carboxamido)cyclohexane-1-carboxylic acid]	≥ 1000 nM	≥ 1000 nM	100 to 1000 nM	≥ 1000 nM	–
O=C(NC12CCC(C(=O)O)(CC1)C2)c1cccn2c(=O)c3cc(C4CC4)ccc3nc12 [Example 7, 4-(2-cyclpropyl-11-oxo-11H-pyrido[2,1-b]quinazoline-6-carboxamido)bicyclo[2.2.1]heptane-1-carboxylic acid]	≥ 1000 nM	≥ 1000 nM	100 to 1000 nM	100 to 1000 nM	–
O=C(N[C@H]1CC[C@@H](C(=O)O)CC1)c1cccn2c(=O)c3ccccc3nc12 [Example 13, (1S,4S)-4-(11-oxo-11H-pyrido[2,1-b]quinazoline-6-carboxamido)cyclohexane-1-carboxylic add]	≥ 1000 nM	≥ 1000 nM	100 to 1000 nM	100 to 1000 nM	100 to 1000 nM
O=C(N[C@H]1CC[C@@H](C(=O)O)CC1)c1cccn2c(=O)c3cc(-c4ccccc4)ccc3nc12 [Example 15, (1S,4S)-4-(11-oxo-2-phenyl-11H-pyrido[2,1-b]quinazoline-6-carboxamido)cyclohexane-1-carboxylic acid]	≥ 1000 nM	≥ 1000 nM	< 100 nM	< 100 nM	–
COc1ccc2nc3c(C(=O)NC4CCC(C(=O)O)CC4)cccn3c(=O)c2c1 (centres unmarked) [Example 20, 4-(2-methoxy-11-oxo-11H-pyrido[2,1-b]quinazoline-6-carboxamido)cyclohexane-1-carboxylic acid]	–	–	< 100 nM	100 to 1000 nM	< 100 nM
O=C(NC1CCC(C(=O)O)CC1)c1cccn2c(=O)c3cc(Cl)ccc3nc12 (centres unmarked) [Example 23, 4-(2-chloro-11-oxo-11H-pyrido[2,1-b]quinazoline-6-carboxamido)cyclohexane-1-carboxylic add]	≥ 1000 nM	≥ 1000 nM	100 to 1000 nM	100 to 1000 nM	–
O=C(N[C@H]1CC[C@@H](C(=O)O)CC1)c1cc(Br)cn2c(=O)c3ccccc3nc12 [Example 40, (cis)-4-(8-bromo-11-oxo-11H-pyrido[2,1-b]quinazoline-6-carboxamido)cyclohexane-1-carboxylic acid]	–	–	100 to 1000 nM	< 100 nM	–
N#Cc1ccc(-c2ccc3nc4c(C(=O)N[C@H]5CC[C@@H](C(=O)O)CC5)cccn4c(=O)c3c2)s1 [Example 42, (1S,4S)-4-(2-(5-cyanothiophen-2-yl)-11-oxo-11H-pyrido[2,1-b]quinazoline-6-carboxamido)cyclohexane-1-carboxylic acid]	–	–	< 100 nM	< 100 nM	–

Now from value to molecule:

IC50 (JAK2)	IC50 (JAK1)	IC50 (JAK3)	IC50 (TYK2)	IC50 (Human MLK3)	Compound
≥ 1000 nM	≥ 1000 nM	100 to 1000 nM	100 to 1000 nM	< 100 nM	O=C(NC12CCC(C(=O)O)(CC1)CC2)c1cccn2c(=O)c3cc(C4CC4)ccc3nc12 [Example 6, 4-(2-cyclopropyl-11-oxo-11H-pyrido[2,1-b]quinazoline-6-carboxamido)bicyclo[2.2.2]octane-1-carboxyli acid]
≥ 1000 nM	≥ 1000 nM	100 to 1000 nM	< 100 nM	≥ 1000 nM	Cc1cc(C(=O)NC2CCC(C(=O)O)CC2)c2nc3ccccc3c(=O)n2c1 (centres unmarked) [Example 10, 4-(8-methyl-11-oxo-11H-pyrido[2,1-b]quinazoline-6-carboxamido)cyclohexane-1-carboxylic acid]
≥ 1000 nM	≥ 1000 nM	≥ 1000 nM	100 to 1000 nM	–	Cc1cc(C(=O)N[C@H]2CC[C@@H](C(=O)O)CC2)c2nc3ccccc3c(=O)n2c1 [Example 11, (1S,4S)-4-(8-methyl-11-oxo-11H-pyrido[2,1-b]quinazoline-6-carboxamido)cyclohexane-1-carboxylic acid]
≥ 1000 nM	≥ 1000 nM	100 to 1000 nM	100 to 1000 nM	–	O=C(NC1CCC(C(=O)O)CC1)c1cccn2c(=O)c3ccccc3nc12 (centres unmarked) [Example 12, 4-(11-oxo-11H-pyrido[2,1-b]quinazoline-6-carboxamido)cyclohexane-1-carboxylic acid]
≥ 1000 nM	≥ 1000 nM	< 100 nM	< 100 nM	< 100 nM	O=C(N[C@H]1CC[C@@H](C(=O)O)CC1)c1cccn2c(=O)c3cc(N4CCOCC4)ccc3nc12 [Example 14, (1S,4S)-4-(2-morpholino-11-oxo-11H-pyrido[2,1-b]quinazoline-6-carboxamido)cyclohexane-1-carboxylic acid]
≥ 1000 nM	≥ 1000 nM	< 100 nM	< 100 nM	< 100 nM	O=C(N[C@H]1CC[C@@H](C(=O)O)CC1)c1cccn2c(=O)c3cc(-c4ccc(F)cc4)ccc3nc12 [Example 16, (1S,4S)-4-(2-(4-fluorophenyl)-11-oxo-11H-pyrido[2,1-b]quinazoline-6-carboxamido)cyclohexane-1-carboxylic acid]
≥ 1000 nM	≥ 1000 nM	100 to 1000 nM	100 to 1000 nM	–	O=C(NC1CCC(C(=O)O)CC1)c1cccn2c(=O)c3cc(Br)ccc3nc12 (centres unmarked) [Example 24, 4-(2-bromo-11-oxo-11H-pyrido[2,1-b]quinazoline-6-carboxamido)cyclohexane-1-carboxylic acid]
–	–	< 100 nM	< 100 nM	–	O=C(N[C@H]1CC[C@@H](C(=O)O)CC1)c1cccn2c(=O)c3cc(-c4cccs4)ccc3nc12 [Example 39, (cis)-4-(11-oxo-2-(thiophen-2-yl)-11H-pyrido[2,1-b]quinazoline-6-carboxamido)cyclohexane-1-carboxylic acid]
–	–	100 to 1000 nM	100 to 1000 nM	–	O=C(NC1CC(C(=O)O)C1)c1cccn2c(=O)c3cc(C4CC4)ccc3nc12 (centres unmarked) [Example 41, 3-(2-cyclopropyl-11-oxo-11H-pyrido[2,1-b]quinazoline-6-carboxamido)cyclobutane-1-carboxylic acid]
–	–	< 100 nM	< 100 nM	–	NC(=O)c1ccc(-c2ccc3nc4c(C(=O)N[C@H]5CC[C@@H](C(=O)O)CC5)cccn4c(=O)c3c2)s1 [Example 43, (1S,4S)-4-(2-(5-carbamoylthiophen-2-yl)-11-oxo-11H-pyrido[2,1-b]quinazoline-6-carboxamido)cyclohexane-1-carboxylic acid]
–	–	< 100 nM	< 100 nM	–	Cn1cnc(-c2ccc3nc4c(C(=O)N[C@H]5CC[C@@H](C(=O)O)CC5)cccn4c(=O)c3c2)c1 [Example 44, (1S,4S)-4-(2-(1-methyl-1H-Imidazol-4-yl)-11-oxo-11H-pyrido[2,1-b]quinazoline-6-carboxamido)cyclohexane-1-carboxylic acid]
–	–	< 100 nM	< 100 nM	–	O=C(N[C@H]1CC[C@@H](C(=O)O)CC1)c1cccn2c(=O)c3cc(-c4ccc(C5CC5)s4)ccc3nc12 [Example 45, (1S,4S)-4-(2-(5-cyclpropylthiophen-2-yl)-11-oxo-11H-pyrido[2,1-b]quinazoline-6-carboxamido)cyclohexane-1-carboxylic acid]
–	–	< 100 nM	< 100 nM	–	O=C(O)c1ccc(-c2ccc3nc4c(C(=O)N[C@H]5CC[C@@H](C(=O)O)CC5)cccn4c(=O)c3c2)s1 [Example 47, 5-(6-(((1s,4s)-4-carboxycyclohexyl)carbamoyl)-11-oxo-11H-pyrido[2,1-b]quinazolin-2-yl)thiophene-2-carboxylic acid]
